According to US11427808B2, “Method for serum-free culture of chondrocytes and serum-free culture medium” (Regenesis Science Co., Ltd., priority 2014, dated 2022):

Tested on: primary human chondrocytes
Assay: serum-free culture of human chondrocytes, cell proliferation
Assay type: cell-based
Conditions: for proliferation of cultured chondrocytes (number of cells): 4th, 7th, 14th and 21st day
Experimental: Primary human chondrocytes were isolated from a fresh sample of articular cartilage, and the sample was fractionated. The obtained fractionated sample was then immersed in a 0.1% to 0.3% collagenase solution, and subjected to enzymatic digestion at 37° C. for 4 to 5 hours. The obtained cells were collected by centrifugation for 5 minutes at 1,200 rpm. A mixture obtained by adding 100 ng/mL FGF, 0.5 μM SAG, 400 ng/mL HC, 5 ng/mL IGF, and 5 μg/mL insulin to DMEM medium was used as a culture medium. The cultured cells previously obtained were seeded at a density of 1000 cells/cm^2 and cultured in an environment of 37° C. and 5% CO2. A mixture obtained by adding 100 ng/mL FGF2, 0.5 μM SAG, 400 ng/mL HC, 5 ng/mL IGF and 5 μg/mL insulin to DMEM medium was used as a culture medium for subculture. The cultured cells in Example 1 were seeded at a density of 10000 cells/cm^2 and cultured in an environment of 37° C. and 5% CO2. In order to examine the optimum concentration of SAG added to a culture medium, the concentration of SAG in a serum-free culture medium was changed to 0.05 uM, 0.01 uM or 0.5 uM, and an influence on proliferation of cultured chondrocytes was examined. Specifically, chondrocytes prepared in the same procedure as in Example 1 were seeded at a density of 10000 cells/well, and the number of cells on the 4th, 7th, 14th and 21st day after seeding was measured. Because SAG is a very expensive reagent, it is preferred that SAG be able to be used at as low concentration as possible. […] Specifically, the concentration of SAG in a serum-free culture medium to which ITS had been added was changed to 0.01 uM, 0.05 uM, 0.1 uM or 0.5 uM, and the cultured chondrocytes were cultured, and the number of cells on the 4th, 7th, 14th and 21st day after seeding was measured. In order to further examine the effect of ITS and SAG on an increase in chondrocytes, an increase in chondrocytes was examined in treated sites to which both ITS and SAG were added (ITS+ 0.01 uM SAG, ITS+ 0.1 uM SAG), a treated site to which ITS was added alone (ITS+ SAG−), and a treated site to which ITS and SAG were not added (ITS− SAG−).

CNC1CCC(N(Cc2cccc(-c3ccncc3)c2)C(=O)c2sc3ccccc3c2Cl)CC1 (stereo not drawn) [SAG]
culture of chondrocytes (Comparative Example 1: primary culture as Example 1 but DMEM medium not containing SAG, first to 5th day, FIG. 3): chondrocytes could not be effectively cultured in the state without SAG
culture of chondrocytes (Comparative Example 2: subculture as Example 2 but DMEM medium not containing SAG, first to 13th day, FIG. 7): chondrocytes could not be effectively cultured in the state which does not contain SAG
effect on proliferation of chondrocytes (ITS+ 0.01 uM SAG, ITS+ 0.1 uM SAG, FIG. 14): an obvious effect can be obtained by combining SAG
proliferation of cultured chondrocytes (number of cells) (SAG 0.01 uM to 0.5 uM added along with ITS, FIG. 13): an increase in chondrocytes was almost equally observed
proliferation of cultured chondrocytes (number of cells) (SAG 0.05 uM, 0.01 uM or 0.5 uM in serum-free culture medium, no ITS, FIG. 12): an obvious difference which had been expected was not observed

O=C1O[C@H]([C@@H](O)CO)C(O)=C1O [ascorbic acid]
effect on culture of chondrocytes in a serum-free culture medium (Example 1: 50 μg/mL ascorbic acid added on the 18th day of culture): very effective
effect on culture of chondrocytes in a serum-free culture medium (Example 2 (subculture): 50 μg/mL ascorbic acid added on the 18th day of culture): very effective

O=C(O)c1ccccc1C(=O)Nc1ccc(-c2ccccc2)cc1 [kartogenin, 2-[(biphenyl-4-yl)carbamoyl] benzoic acid]
effect on proliferation of chondrocytes (ITS+ 1 uM Kartogenin): the effect on proliferation of chondrocytes was observed
proliferation of chondrocytes (kartogenin added in place of SAG): effective for the proliferation of chondrocytes
